Experimental data reported in patent US8492148B2, “Method for amplification of endothelial progenitor cell in vitro” (Foundation for Biomedical Research & Innovation, priority 2005, dated 2013).
“Also recorded” adds a separate entry of the source.

Test system: cord blood CD133 positive cell-derived EPC
Test: EPC colony assay (methylcellulose medium containing physiologically active substances)
Assay type: cell-based
Conditions: 1 μM TGF-β inhibitor in serum-free culture medium (compared with 0, 0.1, 10 μM); cultivation for 2 weeks
Experimental: Using the serum-free culture media of the present invention containing various concentrations of TGF-β inhibitor as prepared in Example 1, cord blood CD133 positive cell-derived EPC was expanded in vitro and differentiated. The degree of expansion was evaluated by counting the number of colonies, and the degree of differentiation was evaluated by separately counting the number of colonies of blood lineage cell and that of EPC. For EPC colony, moreover, large cell colonies and small cell colonies were separately counted, as well as the total number of EPC colonies was counted.
The cord blood-derived mononuclear cells were collected and cultivated in a serum-free culture medium in the same manner as in Example 1. […]
The number of colonies confirmed to be the EPC colonies was counted. The total number of colonies, the number of small cell colonies and the number of large cell colonies were separately counted.
For the blood lineage colony, the number of colonies of four kinds of colonies: erythroid burst-forming unit colony (BFU-E), granulocyte-macrophage lineage colony-forming unit colony (CFU-GM), macrophage colony-forming unit colony (CFU-M) and mixed colony (CFU-GEM) was added, and the appearance frequency thereof was determined over time. […]

With `NC(=O)c1ccc(-c2nc(-c3ccc4c(c3)OCO4)c(-c3ccccn3)[nH]2)cc1` [TGF-β inhibitor, 4-(5-benzo[1.3]dioxol-5-yl-4-pyridin-2-yl-1H-imidazol-2-yl)-benzamide] the “number of EPC colonies per Dish and total number of EPC colonies” value was “at maximum; also recorded: largest number of EPC colonies”.
